Measurements from the NIST ThermoML archive (doi:10.1016/j.fluid.2012.03.005).

Settings: for surface tension liquid-gas: Pendant drop shape; for mass density: 101.33 kPa, Liquid, Vibrating tube method

CCCCCCCCCCCCCC[P+](CCCCCC)(CCCCCC)CCCCCC.[Br-] [tetradecyltrihexylphosphonium bromide]
Settings | mass density [kg/m3] | surface tension liquid-gas [mN/m]
293.15 K | 961.7 | 29.97
297.15 K | 959.2 | –
298.15 K | 958.6 | 29.32
301.15 K | 956.7 | –
303.15 K | 955.5 | 28.94
305.15 K | 954.3 | –
308.15 K | 952.4 | 28.53
309.15 K | 951.8 | –
313.15 K | 949.3 | 28.15
317.15 K | 946.9 | –
318.15 K | 946.2 | 27.81
321.15 K | 944.4 | –
323.15 K | 943.1 | 27.46
325.15 K | 941.9 | –
328.15 K | 940.1 | 27.12
329.15 K | 939.4 | –
333.15 K | 937 | 26.78
337.15 K | 934.6 | –
338.15 K | 934 | 26.57
341.15 K | 932.1 | –
343.15 K | 930.9 | 26.24
345.15 K | 929.7 | –
